Earlier results, collected in patent US10898449B2, “Transdermal therapeutic system containing asenapine” (LTS LOHMANN Therapie-Systeme AG, priority 2016, dated 2021).

How the values were obtained:
[1] = sublingual administration, therapeutic doses
patients = settings: human, in vivo

CN1C[C@H]2c3ccccc3Oc3ccc(Cl)cc3[C@@H]2C1 (relative stereo) [asenapine, (3aRS,12bRS)-rel-5-chloro-2,3,3a,12b-tetrahydro-2-methyl-1H-dibenz[2,3:6,7]oxepino[4,5-c]pyrrole]
terminal disposition half-life [1]: around 1 day | Somnolence and anxiety (very common), share of the patients (patients): ≥ 10%
